Test results: PubChem BioAssay AID1996
Values after ≈ are worked out from the molar mass of the structure shown.

Conditions: buffer; pH 7.4; 200.0 µM

| SMILES | solubility kinetic |
| --- | --- |
| COc1ccc([N+](=O)[O-])cc1NC(=O)C1CCCNC1=O (centres undefined) | 19.1 µg/mL (≈ 65.1 µM) |
| CC1(C)CC(=O)C=C(Nc2ccc([N+](=O)[O-])cc2)C1 | 22.8 µg/mL (≈ 87.6 µM) |
| O=C(Nc1cccc(C(=O)O)c1)Nc1cccc2ccccc12 | > 45.9 µg/mL |
| CCOc1ccc(NS(=O)(=O)c2cc(C(=O)NCCN3CCOCC3)ccc2C)cc1 | 66.4 µg/mL (≈ 148 µM) |
| CCOC(=S)SCC(=O)Nc1ncc(C)s1 | 40.1 µg/mL (≈ 145 µM) |
| Cc1ccc(C)c(OCCCCN2CCNCC2)c1C.O=C(O)C(=O)O | > 55 µg/mL |
| COc1ccc(CNC(=O)/C=C/C(=O)O)cc1 | 35 µg/mL (≈ 149 µM) |
| CCOC(=O)C(=O)Nc1ccccc1C(=O)OC | > 37.7 µg/mL |
| CCC(=O)N(Cc1cc2cc(OC)ccc2[nH]c1=O)c1ccc(C)cc1 | 3 µg/mL (≈ 8.56 µM) |
| Cc1ccc(S(=O)(=O)N2CCOCC2)cc1NC(=O)COC(=O)c1ccc(Br)cc1 | 5.3 µg/mL (≈ 10.7 µM) |
| O=C(NC(=S)Nc1cccc([N+](=O)[O-])c1)C1CCCC1 | 2.6 µg/mL (≈ 8.86 µM) |
| COc1cccc(NC(=S)N2c3ccccc3CC2C)c1 (centres undefined) | 20.3 µg/mL (≈ 68 µM) |
| CCOC(=O)C1CCCN(C(=O)c2cc3cc(OC)c(OC)cc3[nH]2)C1 (centres undefined) | 17.5 µg/mL (≈ 48.6 µM) |
| COc1cc(NC(=O)CCc2c(C)noc2C)c(Cl)cc1C(=O)O | > 52.9 µg/mL |
| CCOC(=O)C1CCN(C(=O)CSc2nc3ncccc3[nH]2)CC1 | 51.5 µg/mL (≈ 148 µM) |
| CC(C)c1ccc(-c2c(NCCc3ccccc3)c(=O)c2=O)cc1 | 0.9 µg/mL (≈ 2.82 µM) |
| CC1=CC(C)C(C(=O)O)C(C(=O)N2CCN(C)CC2)C1 (centres undefined) | > 42.1 µg/mL |
| O=C(c1cnsn1)N1CCC(CO)(Cc2cccc(F)c2)CC1 | 44.4 µg/mL (≈ 132 µM) |
| COc1cc(C(=O)OCC(=O)NCCCc2ccccc2)ccc1OCC(C)C | 1.2 µg/mL (≈ 3 µM) |
| O=C(NCc1ccco1)C1CC(c2ccc(Cl)cc2)=NO1 (centres undefined) | 2.9 µg/mL (≈ 9.52 µM) |
| COc1ccc(S(=O)(=O)NC2CC2)cc1Cl | 35.3 µg/mL (≈ 135 µM) |
| Cl.NCCNC(=O)c1c(O)c2cccc3c2n(c1=O)CCC3 | 48.3 µg/mL |
| CCOC(=O)c1ccc2[nH]c3c(c2c1)CCCC3O (centres undefined) | > 38.9 µg/mL |
| OCCOCCOc1cccc2[nH]ccc12 | 25.9 µg/mL (≈ 117 µM) |

| SMILES | solubility kinetic |
| --- | --- |
| Cn1c(COc2ccccc2)nc2ccccc21 | 23.2 µg/mL (≈ 97.4 µM) |
| CCOc1ccc(N(C(=O)c2cc3ccccc3oc2=O)C2C=CS(=O)(=O)C2)cc1 (centres undefined) | > 63.8 µg/mL |
| COc1ccc(Cl)cc1NC(=O)NCc1ccccn1 | 41.6 µg/mL (≈ 143 µM) |
| CC(C)(C)C1CCC(=NNC(=O)C(=O)NCc2cccnc2)CC1 (centres undefined) | > 49.6 µg/mL |
| COc1ccc(OCCN2C(=O)c3cccc(N)c3C2=O)cc1 | 1.1 µg/mL (≈ 3.52 µM) |
| Cc1cc(C(=O)OCC(=O)NC(C)c2ccc(F)cc2)c(C)o1 (centres undefined) | 11.4 µg/mL (≈ 35.7 µM) |
| CCc1ccc(/C=C2/C(=O)NC(=O)N2C(C)=O)cc1 | 18.6 µg/mL (≈ 72 µM) |
| O=C(Nc1ccccc1)C1C2CCCCC21 (centres undefined) | 1.9 µg/mL (≈ 8.83 µM) |
| COC(=O)c1cccc(NS(C)(=O)=O)c1 | > 34.4 µg/mL |
| Cc1cccc(NC(=O)c2cc([N+](=O)[O-])ccc2N2CCCCC2)n1 | 0.4 µg/mL (≈ 1.18 µM) |
| CC(=O)c1c(C)[nH]c(C(=O)Nc2ccc(F)c(F)c2F)c1C | 1.8 µg/mL (≈ 5.8 µM) |
| O=C(NCCOc1ccccc1)C1=CC=CN2CCS(=O)(=O)N=C12 | > 52.1 µg/mL |
| Cn1ccnc1COc1ccc(C=O)cc1 | > 32.4 µg/mL |
| CSc1cccc(NC(=O)CNS(=O)(=O)c2ccccc2)c1 | > 50.5 µg/mL |
| COc1ccc(CNC(=O)C2CCN(C(=O)Cc3ccccc3)CC2)cc1 | > 55 µg/mL |
| COc1ccc(S(=O)(=O)Nc2noc3ccccc23)cc1 | 42.1 µg/mL (≈ 138 µM) |
| CC(NC(=O)COc1cccnc1[N+](=O)[O-])c1ccc(Cl)cc1 (centres undefined) | > 50.4 µg/mL |
| Cc1cccc(Cn2cnc3c(sc4nc(C)cc(C)c43)c2=O)c1 | < 0.2 µg/mL |
| CC(C)c1ccccc1NC(=O)Nc1ccc(F)cc1F | 2.7 µg/mL (≈ 9.3 µM) |
| COc1cc(/C=C(\NC(C)=O)C(=O)N2CCCCC2)ccc1OC(C)=O | 47.7 µg/mL (≈ 132 µM) |
| CCCc1cc(=O)c2ccc(OC/C(C)=N/O)cc2o1 | 38.3 µg/mL (≈ 139 µM) |
| CCOc1ccc(OCc2ccc(C(=O)N3CCCCC3)o2)cc1 | > 49.4 µg/mL |
| CCNC(=S)Nc1ccc(OCc2nc3ccccc3s2)cc1 | 2.8 µg/mL (≈ 8.15 µM) |
| CC1(C)C(=O)Nc2ccccc2N1C(=O)CSc1ncccn1 | > 49.3 µg/mL |

| SMILES | solubility kinetic |
| --- | --- |
| O=C(Nc1ccc(F)cc1F)Nc1csc2ccccc12 | 0.6 µg/mL (≈ 1.97 µM) |
| Cc1cccc(CN2CCN(C(=S)Nc3ccccc3)CC2)c1 | > 48.8 µg/mL |
| COc1cccc(NC(=O)CC(=O)c2ccccc2)c1 | > 40.4 µg/mL |
| COc1ccc(S(=O)(=O)N(C)CC(=O)NCCN2CCOCC2)cc1 | 51.5 µg/mL (≈ 139 µM) |
| O=C(CSCc1ccc(F)cc1)NCc1ccc(F)cc1 | 44 µg/mL (≈ 143 µM) |
| Nc1cc(=O)[nH]c(SCC(=O)NC2CCCCCCC2)n1 | > 46.6 µg/mL |
| COc1cccc(NC(=O)CN(C)C(C)C(=O)N2CCCC2)c1 (centres undefined) | 44.4 µg/mL (≈ 139 µM) |
| COCCn1c(C)cc(O)c(C(=O)Nc2cccc(Cl)c2)c1=O | < 0.4 µg/mL |
| NC(=O)c1ccsc1NC(=O)Cc1ccc([N+](=O)[O-])cc1 | 12 µg/mL (≈ 39.3 µM) |
| CCS(=O)(=O)N1CCN(c2ccnc3cc(Cl)ccc23)CC1 | > 51 µg/mL |
| CCN1CCN(c2cc(=O)n3ccccc3n2)CC1 | 32 µg/mL (≈ 124 µM) |
| N#Cc1cccc(NC(=O)CN2CCN(Cc3ccccc3)CC2)c1 | 49.8 µg/mL (≈ 149 µM) |
| O=C(CCC(=O)Nc1ccccc1)N/N=C/c1cccnc1 | > 44.4 µg/mL |
| Nc1cccc2cnccc12 | 1.4 µg/mL (≈ 9.71 µM) |
| COc1ccc(C(=O)NC(=S)N2CCOCC2)cc1OC | > 46.6 µg/mL |
| CC1CC(C)CN(C(=O)CSc2ncnc3sccc23)C1 (centres undefined) | 17.1 µg/mL (≈ 53.2 µM) |
| O=C(Nc1cccc(C(F)(F)F)c1)c1cncs1 | > 40.8 µg/mL |
| O=C(NC1CCC1)C1CCC(=O)N(Cc2cccc(F)c2)C1 (centres undefined) | > 45.7 µg/mL |
| CC(NC(=O)CN1CCN(C(=O)c2cccs2)CC1)c1ccc(F)cc1F (centres undefined) | > 59 µg/mL |
| C=CCN1CN(CCc2ccccc2)CNC1=S | > 39.2 µg/mL |
| CC(C)c1ccc(NC(=O)CN2CCN(c3ccccn3)CC2)cc1 | 1 µg/mL (≈ 2.95 µM) |
| CSC1=NC2(C[C@H]2c2ccccc2)C(=O)N1C (some centres undefined) | > 36.9 µg/mL |
| CN(C)C=Nc1nonc1-c1ccccc1 | 24.4 µg/mL (≈ 113 µM) |
| CC(Sc1nnc2n1CCCCC2)C(=O)Nc1ccccc1[N+](=O)[O-] (centres undefined) | > 54.2 µg/mL |

| SMILES | solubility kinetic |
| --- | --- |
| COC(=O)CSc1[nH]c2ccc(F)cc2c1[N+](=O)[O-] | 41.8 µg/mL (≈ 147 µM) |
| CCOc1cc(C2C(C#N)=C(N)Oc3cc(N)ccc32)ccc1O (centres undefined) | 33.5 µg/mL (≈ 104 µM) |
| Nc1ccccc1SC1CC(=O)N(c2ccc3c(c2)OCCO3)C1=O (centres undefined) | 0.9 µg/mL (≈ 2.53 µM) |
| COc1ccc(N2CCN(CC(=O)c3c[nH]c4ccccc34)CC2)cc1 | 1.9 µg/mL (≈ 5.44 µM) |
| CCOc1ccccc1C(=O)NN1CCOCC1 | > 37.5 µg/mL |
| Cc1cc(=O)[nH]c(-c2cccs2)n1 | > 28.8 µg/mL |
| COc1ccccc1-n1ccnc(SCC(=O)NC2CCCC2)c1=O | > 53.9 µg/mL |
| Cc1c(C(=O)OC(C)C(=O)N(C)Cc2ccccc2)oc2ccccc12 (centres undefined) | 18.5 µg/mL (≈ 52.6 µM) |
| CC(=O)c1ccc(NS(=O)(=O)c2ccc(C(C)(C)C)cc2)cc1 | 1.7 µg/mL (≈ 5.13 µM) |
| Cc1c(C=O)c2ccccc2n1CCOc1ccccc1 | 6.2 µg/mL (≈ 22.2 µM) |
| CC(C)CCN1C(=O)c2ccc(C(=O)OCC(=O)N(CC(C)C)C3CCS(=O)(=O)C3)cc2C1=O (centres undefined) | 46.8 µg/mL (≈ 95 µM) |
| O=C(O)C1Cc2ccccc2CN1C(=O)CCl (centres undefined) | > 38.1 µg/mL |
| CCc1nnc(NC(=O)CCNC(=O)c2ccccc2Cl)s1 | > 50.8 µg/mL |
| CCOC(=O)c1c(N)sc(C(=O)Nc2ccccc2)c1C | 40.7 µg/mL (≈ 134 µM) |
| CC(C)[C@H](NC(=O)c1ccccc1Cl)C(=O)OCC(=O)NCc1ccc2c(c1)OCO2 | > 67 µg/mL |
| Cc1ccc(Nc2c(-c3ccc(C)o3)nc3ncccn23)cc1 | 1.9 µg/mL (≈ 6.24 µM) |
| COc1ccc(C(=O)O/N=C(\N)c2ccc(Cl)cc2)cc1 | 0.4 µg/mL (≈ 1.31 µM) |
| COC(=O)C1=Nc2ccccc2/C1=C\c1c(O)n(C)c(=O)n(C)c1=O | > 51.2 µg/mL |
| Cc1cccc(NC(=O)N2C3CCCC2CC(NC(=O)C2CC2)C3)c1 (centres undefined) | 22.7 µg/mL (≈ 66.5 µM) |
| CC(Cc1ccccc1)NC(=S)CN1CCCC1=S (centres undefined) | 38.9 µg/mL (≈ 133 µM) |
| Cc1ccc2nc(SC(C)C(=O)N3CCOCC3)[nH]c2c1 (centres undefined) | 38.3 µg/mL (≈ 125 µM) |
| Cc1oc(-c2cccc(C(F)(F)F)c2)nc1CN1CCOCC1 | 44.3 µg/mL (≈ 136 µM) |
| O=C(CN1C(=O)NC2(CCCc3ccccc32)C1=O)NCCc1ccc(F)cc1 (centres undefined) | > 59.3 µg/mL |
| O=C1CNC(=S)N1CCc1ccccc1Cl | > 38.2 µg/mL |

| SMILES | solubility kinetic |
| --- | --- |
| CCN(CC)C(=O)COc1ccc2c3c(c(=O)oc2c1)CCCC3 | 48.1 µg/mL (≈ 146 µM) |
| COc1ccc(Cl)cc1C(=O)NCCCn1ccnc1 | > 44.1 µg/mL |
| O=c1oc(/C=C/c2ccccc2)nc2ccccc12 | 0.7 µg/mL (≈ 2.81 µM) |
| Oc1ccc(-c2ccccc2)cc1CN1CCCCCC1 | 17.4 µg/mL (≈ 61.8 µM) |
| CCn1c(C)nc2cc(N)ccc21.Cl | 34.3 µg/mL |
| Cc1ccc(Br)cc1S(=O)(=O)Nc1cccnc1 | > 49.1 µg/mL |
| Cc1noc(C)c1C(=O)OCC(=O)NCCc1ccc(S(N)(=O)=O)cc1 | > 57.2 µg/mL |
| C=CCNC(=O)C12CCC(C)(C(=O)[C@H]1Br)C2(C)C (some centres undefined) | > 47.1 µg/mL |
| CC(C)(C)C(=O)Nc1ccc(-c2cc3cc(Cl)ccc3o2)cc1 | 0.8 µg/mL (≈ 2.44 µM) |
| CCOC(=O)c1c(-c2ccc(OC)cc2)cn2ccccc12 | < 0.6 µg/mL |
| CCC(=O)Nc1ccc2c(c1)ncn2C | > 30.5 µg/mL |
| Cc1ccc(N2C(=O)N(c3ccc(C)cc3)C3CS(=O)(=O)CC32)cc1 (centres undefined) | 12.9 µg/mL (≈ 36.2 µM) |
| COc1ccc(C(=O)N[C@H](C(=O)NC2CCCCC2)C(C)C)cc1 | 5.1 µg/mL (≈ 15.3 µM) |
| CC(Sc1nc2sccc2c(=O)n1-c1ccccc1)C(N)=O (centres undefined) | 43.5 µg/mL (≈ 131 µM) |
| CCc1sc(C(=O)NC(C)C2CCCO2)cc1Br (centres undefined) | 49.5 µg/mL (≈ 149 µM) |
| O=C(CSc1nnc(-c2ccccn2)o1)Nc1ccc(F)cc1 | > 49.6 µg/mL |
| COc1cc(OC)c(N(C)S(=O)(=O)c2cccc(C(=O)Nc3nccs3)c2)cc1Cl | 4.2 µg/mL (≈ 8.98 µM) |
| Cn1cc(S(=O)(=O)N2CCCC(C(=O)O)C2)cn1 (centres undefined) | > 41 µg/mL |
| COCCn1c(C(C)C)nc2ccccc21 | > 32.7 µg/mL |
| O=S(=O)(NC1CCCC1)c1cc(F)ccc1F | > 39.2 µg/mL |
| Cc1cc2ccccn2c1C(=O)c1ccc(S(=O)(=O)N(C)C)cc1 | 1.1 µg/mL (≈ 3.21 µM) |
| Cc1ccc(/C=N/NC(=O)c2ccc3nc[nH]c3c2)o1 | > 40.2 µg/mL |
| COc1ccc(NC(=O)c2c(N)no[n+]2[O-])c(OC)c1 | 1.5 µg/mL (≈ 5.35 µM) |
